Test system: MV-4-11 cells
Test: Gene expression microarray analysis (Affymetrix PrimeView) and GSEA
Type: cell-based, human
Design: RFU PODN (11730768_x_at) / Fold change /veh PODN (11730768_x_at) / RFU LINC00158 (11744669_a_at) / Fold change /veh LINC00158 (11744669_a_at) / RFU DUSP10 (11751237_a_at) / Fold change /veh DUSP10 (11751237_a_at) / RFU ID3 (11757404_x_at) / Fold change /veh ID3 (11757404_x_at) / RFU PLEKHG5 (11737974_s_at) / Fold change /veh PLEKHG5 (11737974_s_at) / RFU LRRC4B (11730491_at) / Fold change /veh LRRC4B (11730491_at) / RFU GIMAP4 (11747438_a_at) / Fold change /veh GIMAP4 (11747438_a_at) / RFU KRT8 (11758183_x_at) / Fold change /veh KRT8 (11758183_x_at) / RFU CNN1 (11734310_a_at) / Fold change /veh CNN1 (11734310_a_at) / RFU VPS37D (11726825_at) / Fold change /veh VPS37D (11726825_at) / RFU C10orf10 (11716522_x_at) / Fold change /veh C10orf10 (11716522_x_at) / RFU KIR2DL2 /// KIR2DL4 /// KIR2DL5A /// KIR2DL5B /// KIR2DS1 /// KIR2DS2 /// KIR2DS3 /// KIR2DS4 /// KIR3DL3 /// KIR3DL3 /// KIR3DS1 (11738374_at) / Fold change /veh KIR2DL2 /// KIR2DL4 /// KIR2DL5A /// KIR2DL5B /// KIR2DS1 /// KIR2DS2 /// KIR2DS3 /// KIR2DS4 /// KIR3DL3 /// KIR3DL3 /// KIR3DS1 (11738374_at) / RFU C1QL1 (11718748_at) / Fold change /veh C1QL1 (11718748_at) / RFU TMPRSS4 (11747572_a_at) / Fold change /veh TMPRSS4 (11747572_a_at) / RFU HAMP (11756126_x_at) / Fold change /veh HAMP (11756126_x_at) / RFU RNFT2 (11725882_a_at) / Fold change /veh RNFT2 (11725882_a_at) / RFU NR4A2 (11747474_a_at) / Fold change /veh NR4A2 (11747474_a_at) / RFU ABCC12 (11746883_a_at) / Fold change /veh ABCC12 (11746883_a_at) / RFU TMEM136 (11760407_x_at) / Fold change /veh TMEM136 (11760407_x_at) / RFU CLDN22 /// WWC2 (11732394_at) / Fold change /veh CLDN22 /// WWC2 (11732394_at) / RFU HLA-DPB1 (11760878_x_at) / Fold change /veh HLA-DPB1 (11760878_x_at) / RFU SPINT1 (11716480_a_at) / Fold change /veh SPINT1 (11716480_a_at) / RFU GAP43 (11754022_s_at) / Fold change /veh GAP43 (11754022_s_at) / RFU A4GNT (11735810_at) / Fold change /veh A4GNT (11735810_at) / RFU PRB3 (11715151_x_at) / Fold change /veh PRB3 (11715151_x_at) / RFU TUBB4B (11761932_at) / Fold change /veh TUBB4B (11761932_at) / RFU CAPN14 (11732068_a_at) / Fold change /veh CAPN14 (11732068_a_at) / RFU TMCC2 (11721928_a_at) / Fold change /veh TMCC2 (11721928_a_at) / RFU IRGQ (11745062_a_at) / Fold change /veh IRGQ (11745062_a_at) / RFU FAM174B (11720279_a_at) / Fold change /veh FAM174B (11720279_a_at) / RFU TMPRSS4 (11748680_a_at) / Fold change /veh TMPRSS4 (11748680_a_at) / RFU FAM212B (11763350_a_at) / Fold change /veh FAM212B (11763350_a_at) / RFU PLEKHG5 (11743358_a_at) / Fold change /veh PLEKHG5 (11743358_a_at) / RFU ZSCAN30 (11745921_a_at) / Fold change /veh ZSCAN30 (11745921_a_at) / RFU CMKLR1 (11741424_a_at) / Fold change /veh CMKLR1 (11741424_a_at) / RFU LOC101060620 /// MAPK8IP1 (11723275_at) / Fold change /veh LOC101060620 /// MAPK8IP1 (11723275_at) / RFU SPTSSB (11747773_x_at) / Fold change /veh SPTSSB (11747773_x_at) / RFU PRSS12 (11739890_at) / Fold change /veh PRSS12 (11739890_at) / RFU BIN1 (11741810_x_at) / Fold change /veh BIN1 (11741810_x_at) / RFU WNT11 (11732464_a_at) / Fold change /veh WNT11 (11732464_a_at) / RFU C10orf10 (11716521_a_at) / Fold change /veh C10orf10 (11716521_a_at) / RFU C5orf56 (11738089_at) / Fold change /veh C5orf56 (11738089_at) / RFU CYB561 (11721691_x_at) / Fold change /veh CYB561 (11721691_x_at) / RFU ANKRD19P (11752326_a_at) / Fold change /veh ANKRD19P (11752326_a_at) / RFU OR2T12 /// OR2T33 /// OR2T8 (11738714_s_at) / Fold change /veh OR2T12 /// OR2T33 /// OR2T8 (11738714_s_at) / RFU VCAN (11748164_a_at) / Fold change /veh VCAN (11748164_a_at) / RFU JSRP1 (11732532_at) / Fold change /veh JSRP1 (11732532_at) / RFU KRTAP10-11 (11738290_x_at) / Fold change /veh KRTAP10-11 (11738290_x_at) / RFU MYO3A (11730013_a_at) / Fold change /veh MYO3A (11730013_a_at) / RFU EBF3 (11725865_a_at) / Fold change /veh EBF3 (11725865_a_at) / RFU CAMK2N1 (11719241_x_at) / Fold change /veh CAMK2N1 (11719241_x_at) / RFU C5orf56 (11738088_a_at) / Fold change /veh C5orf56 (11738088_a_at) / RFU OLFML3 (11715873_a_at) / Fold change /veh OLFML3 (11715873_a_at) / RFU LOC100653217 /// NTM (11731650_a_at) / Fold change /veh LOC100653217 /// NTM (11731650_a_at) / RFU MAPK11 (11762145_a_at) / Fold change /veh MAPK11 (11762145_a_at) / RFU FIZ1 (11724087_x_at) / Fold change /veh FIZ1 (11724087_x_at) / RFU OASL (11726364_x_at) / Fold change /veh OASL (11726364_x_at) / RFU SOX15 (11748057_x_at) / Fold change /veh SOX15 (11748057_x_at) / RFU CD79A (11719716_a_at) / Fold change /veh CD79A (11719716_a_at) / RFU HIST1H1D (11736915_at) / Fold change /veh HIST1H1D (11736915_at) / RFU CASKIN2 (11723855_a_at) / Fold change /veh CASKIN2 (11723855_a_at) / RFU LOC730098 (11760151_x_at) / Fold change /veh LOC730098 (11760151_x_at) / RFU OR4N2 (11742367_at) / Fold change /veh OR4N2 (11742367_at) / RFU PRRT2 (11749266_a_at) / Fold change /veh PRRT2 (11749266_a_at) / RFU SNX32 (11753110_a_at) / Fold change /veh SNX32 (11753110_a_at) / RFU CDHR5 (11726645_a_at) / Fold change /veh CDHR5 (11726645_a_at) / RFU RCAN1 (11760418_a_at) / Fold change /veh RCAN1 (11760418_a_at) / RFU FAM167A (11723789_a_at) / Fold change /veh FAM167A (11723789_a_at) / RFU FAM26E (11764081_at) / Fold change /veh FAM26E (11764081_at) / RFU ISYNA1 (11749810_s_at) / Fold change /veh ISYNA1 (11749810_s_at) / RFU ACY1 (11761880_at) / Fold change /veh ACY1 (11761880_at) / RFU 11764098_at / Fold change /veh 11764098_at / RFU SAMD14 (11745864_x_at) / Fold change /veh SAMD14 (11745864_x_at) / RFU NPB (11741838_a_at) / Fold change /veh NPB (11741838_a_at) / RFU TMPRSS6 (11731388_a_at) / Fold change /veh TMPRSS6 (11731388_a_at) / RFU KRTAP10-2 (11738614_at) / Fold change /veh KRTAP10-2 (11738614_at) / RFU ARHGAP8 /// PRR5-ARHGAP8 (11727945_x_at) / Fold change /veh ARHGAP8 /// PRR5-ARHGAP8 (11727945_x_at) / RFU KRTAP5-7 /// NADSYN1 (11734609_at) / Fold change /veh KRTAP5-7 /// NADSYN1 (11734609_at) / RFU RASL12 (11751679_a_at) / Fold change /veh RASL12 (11751679_a_at) / RFU CDKN2B (11736163_a_at) / Fold change /veh CDKN2B (11736163_a_at) / RFU PRF1 (11729649_at) / Fold change /veh PRF1 (11729649_at) / RFU, ZNF638 /// ZNF638-IT1 / Fold change vs veh, ZNF638 /// ZNF638-IT1 / RFU, PANK3 / Fold change vs veh, PANK3 / RFU, SH3YL1 / Fold change vs veh, SH3YL1 / RFU, ZEB2 / Fold change vs veh, ZEB2 / RFU, NRIP1 / Fold change vs veh, NRIP1 / RFU, PTTG1IP / Fold change vs veh, PTTG1IP / RFU, CAPN2 / Fold change vs veh, CAPN2 / RFU, MED14 / Fold change vs veh, MED14 / RFU, SNORA58 / Fold change vs veh, SNORA58 / RFU, C1orf63 / Fold change vs veh, C1orf63 / RFU, LRRFIP1 / Fold change vs veh, LRRFIP1 / RFU, NDUFAF7 / Fold change vs veh, NDUFAF7 / RFU, SLC12A2 / Fold change vs veh, SLC12A2 / RFU, IBTK / Fold change vs veh, IBTK / RFU, ESF1 / Fold change vs veh, ESF1 / Fold change vs veh, TMEM50B / RFU, TAOK1 / Fold change vs veh, TAOK1 / RFU, ACBD3 / Fold change vs veh, ACBD3 / RFU, TMA16 / Fold change vs veh, TMA16 / RFU, RWDD3 / Fold change vs veh, RWDD3 / RFU, BCAT1 / Fold change vs veh, BCAT1 / RFU, EDEM3 / Fold change vs veh, EDEM3 / RFU, TMEM33 / Fold change vs veh, TMEM33 / RFU, WDR75 / Fold change vs veh, WDR75 / RFU, AHCTF1 / Fold change vs veh, AHCTF1 / RFU, TFRC / Fold change vs veh, TFRC / RFU, ZDHHC17 / Fold change vs veh, ZDHHC17 / RFU, NOM1 / Fold change vs veh, NOM1 / RFU, ARL8B / Fold change vs veh, ARL8B / RFU, ZBTB11 / Fold change vs veh, ZBTB11 / RFU, TAMM41 / Fold change vs veh, TAMM41 / RFU, KIAA1704 /// LOC100996395 / Fold change vs veh, KIAA1704 /// LOC100996395 / RFU, ING1 / Fold change vs veh, ING1 / RFU, TRMT61B / Fold change vs veh, TRMT61B / RFU, FUBP3 / Fold change vs veh, FUBP3 / RFU, TP53 / Fold change vs veh, TP53 / RFU, TNKS2 / Fold change vs veh, TNKS2 / RFU, ZFP14 / Fold change vs veh, ZFP14 / RFU, ACTR2 / Fold change vs veh, ACTR2 / RFU, PPP3R1 / Fold change vs veh, PPP3R1 / RFU, PIK3R1 / Fold change vs veh, PIK3R1 / RFU, HNRNPA1 / Fold change vs veh, HNRNPA1 / RFU, RNF170 / Fold change vs veh, RNF170 / RFU, ZNF28 / Fold change vs veh, ZNF28 / RFU, RNGTT / Fold change vs veh, RNGTT / RFU, OGT / Fold change vs veh, OGT / RFU, BRD1 / Fold change vs veh, BRD1 / RFU, MARS / Fold change vs veh, MARS / RFU, ZNF655 / Fold change vs veh, ZNF655 / RFU, FAHD1 / Fold change vs veh, FAHD1 / RFU, BDP1 / Fold change vs veh, BDP1 / RFU, LRRCC1 / Fold change vs veh, LRRCC1 / RFU, ARID1A / Fold change vs veh, ARID1A / RFU, ZNF146 / Fold change vs veh, ZNF146 / RFU, ZNF330 / Fold change vs veh, ZNF330 / RFU, GPN3 / Fold change vs veh, GPN3 / RFU, C9orf123 / Fold change vs veh, C9orf123 / RFU, N4BP2L2 / Fold change vs veh, N4BP2L2 / RFU, ARFIP1 / Fold change vs veh, ARFIP1 / RFU, FAM179B / Fold change vs veh, FAM179B / RFU, BCL10 / Fold change vs veh, BCL10 / RFU, UHRF1BP1L / Fold change vs veh, UHRF1BP1L / RFU, BET1 / Fold change vs veh, BET1 / RFU, CNOT2 / Fold change vs veh, CNOT2 / RFU, ZNF268 / Fold change vs veh, ZNF268 / Fold change vs veh, ZNF507 / RFU, DGCR2 / Fold change vs veh, DGCR2 / RFU, WDSUB1 / Fold change vs veh, WDSUB1 / Fold change vs veh, HSP90B1 /// MIR3652 / RFU, ADSS / Fold change vs veh, ADSS / RFU, GK / Fold change vs veh, GK / RFU, ZNF148 / Fold change vs veh, ZNF148 / RFU, TAF9 / Fold change vs veh, TAF9 / RFU, SLC1A5 / Fold change vs veh, SLC1A5 / RFU, SLMO2 / Fold change vs veh, SLMO2 / RFU, ABCC4 / Fold change vs veh, ABCC4 / RFU, LOC101060439 /// RAP1B / Fold change vs veh, LOC101060439 /// RAP1B / RFU, RFX7 / Fold change vs veh, RFX7 / RFU, GTPBP10 / Fold change vs veh, GTPBP10 / RFU, CNEP1R1 / Fold change vs veh, CNEP1R1 / RFU, BIVM-ERCC5 /// ERCC5 / Fold change vs veh, BIVM-ERCC5 /// ERCC5 / RFU, ILF3 / Fold change vs veh, ILF3 / RFU 11762660_at / Fold change /veh 11762660_at / RFU VCAN (11757783_s_at) / Fold change /veh VCAN (11757783_s_at) / RFU DDX43 (11728927_at) / Fold change /veh DDX43 (11728927_at) / RFU KRT8 (11758188_x_at) / Fold change /veh KRT8 (11758188_x_at) / RFU NKD1 (11759106_at) / Fold change /veh NKD1 (11759106_at) / RFU SRD5A1 (11742802_a_at) / Fold change /veh SRD5A1 (11742802_a_at) / RFU TPSAB1 /// TPSB2 (11721975_s_at) / Fold change /veh TPSAB1 /// TPSB2 (11721975_s_at) / RFU GSTM3 (11746129_a_at) / Fold change /veh GSTM3 (11746129_a_at) / RFU IL23R (11737362_x_at) / Fold change /veh IL23R (11737362_x_at) / RFU TMEM51 (11727254_a_at) / Fold change /veh TMEM51 (11727254_a_at) / RFU PIWIL2 (11732686_x_at) / Fold change /veh PIWIL2 (11732686_x_at) / RFU ORM1 (11744905_x_at) / Fold change /veh ORM1 (11744905_x_at) / RFU CCDC152 (11743942_at) / Fold change /veh CCDC152 (11743942_at) / RFU ECM1 (11717891_a_at) / Fold change /veh ECM1 (11717891_a_at) / RFU IL23R (11748794_a_at) / Fold change /veh IL23R (11748794_a_at) / RFU TNFAIP8L3 (11732012_x_at) / Fold change /veh TNFAIP8L3 (11732012_x_at) / RFU MBOAT4 (11741988_at) / Fold change /veh MBOAT4 (11741988_at) / RFU 11764193_at / Fold change /veh 11764193_at / RFU TMEM53 (11763286_at) / Fold change /veh TMEM53 (11763286_at) / RFU MAGEB2 (11727129_at) / Fold change /veh MAGEB2 (11727129_at) / RFU TMEM200A (11744735_a_at) / Fold change /veh TMEM200A (11744735_a_at) / RFU CCDC152 (11751479_a_at) / Fold change /veh CCDC152 (11751479_a_at) / RFU FAM211A (11726209_a_at) / Fold change /veh FAM211A (11726209_a_at) / RFU RGS16 (11746705_a_at) / Fold change /veh RGS16 (11746705_a_at) / RFU VCAN (11755009_s_at) / Fold change /veh VCAN (11755009_s_at) / RFU RHOB (11743442_s_at) / Fold change /veh RHOB (11743442_s_at) / RFU RGS16 (11720943_a_at) / Fold change /veh RGS16 (11720943_a_at) / RFU RGS16 (11720944_at) / Fold change /veh RGS16 (11720944_at) / RFU, VPS4B / Fold change vs veh, VPS4B / RFU, CREB1 / Fold change vs veh, CREB1 / RFU, DNAJC13 / Fold change vs veh, DNAJC13 / RFU, GNAQ / Fold change vs veh, GNAQ / RFU, CDK5R1 / Fold change vs veh, CDK5R1 / RFU, ZRANB3 / Fold change vs veh, ZRANB3 / RFU, CUL4A / Fold change vs veh, CUL4A / RFU, CCNY / Fold change vs veh, CCNY / RFU, UFL1 / Fold change vs veh, UFL1 / RFU, COG3 / Fold change vs veh, COG3 / RFU, DIAPH2 / Fold change vs veh, DIAPH2 / RFU, SKA2 / Fold change vs veh, SKA2 / RFU, AFF3 / Fold change vs veh, AFF3 / RFU, LMF1 / Fold change vs veh, LMF1 / RFU, IPO11 / Fold change vs veh, IPO11 / RFU, DFFB / Fold change vs veh, DFFB / RFU, FOXP1 / Fold change vs veh, FOXP1 / RFU, CARD8 / Fold change vs veh, CARD8 / RFU, STRN3 / Fold change vs veh, STRN3 / RFU, ADK / Fold change vs veh, ADK / RFU, RASSF2 / Fold change vs veh, RASSF2 / RFU, WIPF1 / Fold change vs veh, WIPF1 / RFU, LARP1B / Fold change vs veh, LARP1B / RFU, RASA1 / Fold change vs veh, RASA1 / RFU, RB1 / Fold change vs veh, RB1 / RFU, PPFIA1 / Fold change vs veh, PPFIA1 / RFU, MAT2A / Fold change vs veh, MAT2A / RFU, CCT5 / Fold change vs veh, CCT5 / RFU, WDR92 / Fold change vs veh, WDR92 / RFU, CUX1 / Fold change vs veh, CUX1 / RFU, TTC7A / Fold change vs veh, TTC7A / RFU, TMEM135 / Fold change vs veh, TMEM135 / RFU, DEPTOR / Fold change vs veh, DEPTOR / RFU, CPM / Fold change vs veh, CPM / RFU, DNAJB6 / Fold change vs veh, DNAJB6 / RFU, CACNA2D3 / Fold change vs veh, CACNA2D3 / RFU, DTX4 / Fold change vs veh, DTX4 / RFU, TFCP2 / Fold change vs veh, TFCP2 / RFU, GMCL1 /// GMCL1P1 / Fold change vs veh, GMCL1 /// GMCL1P1 / RFU, AEBP2 / Fold change vs veh, AEBP2 / RFU, SNHG1 /// SNORD22 /// SNORD25 /// SNORD26 /// SNORD27 /// SNORD28 /// SNORD29 /// SNORD31 / Fold change vs veh, SNHG1 /// SNORD22 /// SNORD25 /// SNORD26 /// SNORD27 /// SNORD28 /// SNORD29 /// SNORD31 / Fold change (Aza/veh), C12orf56 (ProbeSet 11735607_a_at) / Fold change (ACY-1035/veh), C12orf56 (ProbeSet 11735607_a_at) / Fold change (Aza/veh), FGFR1OP (ProbeSet 11751329_s_at) / Fold change (ACY-1035/veh), FGFR1OP (ProbeSet 11751329_s_at) / Fold change (Aza/veh), VPS36 (ProbeSet 11739960_a_at) / Fold change (ACY-1035/veh), VPS36 (ProbeSet 11739960_a_at) / RFU SYPL1 (11715823_x_at) / Fold change /veh SYPL1 (11715823_x_at) / RFU IGFBP7 (11715501_s_at) / Fold change /veh IGFBP7 (11715501_s_at) / RFU REEP3 (11722064_at) / Fold change /veh REEP3 (11722064_at) / RFU IGLL1 (11728026_x_at) / Fold change /veh IGLL1 (11728026_x_at): dose or concentration left out as unconfirmed
Conditions: ProbeSet 11718701_a_at; LIST B

Nc1ncn([C@@H]2O[C@H](CO)[C@@H](O)[C@H]2O)c(=O)n1 [azacitidine]
Fold change vs veh, ARFIP1: 1.05
